Entries after “also recorded” stand apart in the source; their conditions may differ.
What was measured:
3T3 fibroblasts = assay: NAD+ levels in 3T3 fibroblasts after NRH treatment; assay type: cell-based
Protocol: (§1) The ability of NRH to potently increase NAD+ was tested as well in other cell type models.

[1] = set-up: species or system mice; settings: mouse, in vivo, po
Description: (§2) Levels of NRH and other NAD-related metabolites in biological samples were obtained by using a cold liquid-liquid extraction using a mixture of methanol:water:chloroform in 5:3:5 (v/v), from which the polar phase was recovered for hydrophilic interaction ultra-high performance liquid chromatography mass spectrometry (UHPLC-MS) analysis. The UHPLC consisted of a binary pump, a cooled autosampler, and a column oven (DIONEX Ultimate 3000 UHPLC+ Focused, Thermo Scientific), connected to a triple quadrupole spectrometer (TSQ Vantage, Thermo Scientific) equipped with a heated electrospray ionisation (H-ESI) source. Of each sample, 2 μL were injected into the analytical column (2.1 mm×150 mm, 5 μm pore size, 200 Å HILICON iHILIC®-Fusion(P)), guarded by a pre-column (2.1 mm×20 mm, 200 Å HILICON iHILIC®-Fusion(P) Guard Kit) operating at 35° C. The mobile phase (10 mM ammonium acetate at pH 9, A, and acetonitrile, B) was pumped at 0.25 mL/min flow rate over a linear gradient of decreasing organic solvent (0.5-16 min, 90-25% B), followed by re-equilibration for a total run time of 30 min. The MS operated in positive mode at 3500 V with multiple reaction monitoring (MRM). The software Xcalibur v4.1.31.9 (Thermo Scientific) was used for instrument control, data acquisition and processing. Retention time and mass detection was confirmed by authentic standards.
(§3) Oral administration of NRH led to very similar results to those observed after IP administration. […] In contrast, NR levels were undetectable at 1 h after NR administration. As expected, NR treatment led to large increases in circulating NAM, which where ˜4-fold higher than those observed after NRH treatment.

[2] = tested on: equilibrative nucleoside transporters (ENTs); assay: NRH action as NAD+ precursor under ENT blockage with NBTI; assay type: cell-based; settings: in the presence of S-(4-nitrobenzyl)-6-thioinosine (NBTI)
Description: In order to understand the exact path by which NRH synthesizes NAD+, we initially evaluated whether NRH, could be transported into the cell by equilibrative nucleoside transporters (ENTs).

NMNAT = assay: NRH-induced NAD+ synthesis under NMNAT inhibition with gallotannin; assay type: cell-based
Description: As a follow-up step, NMNAT enzymes could catalyze the transition from NMNH to NADH.

[3] = tested on: NAD+ levels in liver, skeletal muscle and kidney; assay: Tissue NAD+ levels after oral gavage of NR or NRH; assay type: in vivo, C57BI/6NTac mice
Protocol: 8 week-old C57BI/6NTac mice were orally gavaged with either saline (as vehicle), NR (500 mg/kg) or NRH (500 mg/kg). After 1 hour, liver, skeletal muscle and kidney NAD^+ levels were evaluated. All results are expressed as mean +/−SEM of n=5 mice per group. * indicates statistical difference at p<0.05 vs. vs. saline-treated mice. # indicates statistical difference at p<0.05 vs. NR treated mice.
as §3

adenosine kinase (AK) = molecular target: T1, adenosine kinase (AK) (Mus musculus, UniProt P55264); assay: NRH-induced NAD+ synthesis under adenosine kinase inhibition (5-IT, ABT-702); assay type: cell-based
T1 construct: endogenous in cells; host or cells: AML12 cells
T1 sequence (P55264 whole entry): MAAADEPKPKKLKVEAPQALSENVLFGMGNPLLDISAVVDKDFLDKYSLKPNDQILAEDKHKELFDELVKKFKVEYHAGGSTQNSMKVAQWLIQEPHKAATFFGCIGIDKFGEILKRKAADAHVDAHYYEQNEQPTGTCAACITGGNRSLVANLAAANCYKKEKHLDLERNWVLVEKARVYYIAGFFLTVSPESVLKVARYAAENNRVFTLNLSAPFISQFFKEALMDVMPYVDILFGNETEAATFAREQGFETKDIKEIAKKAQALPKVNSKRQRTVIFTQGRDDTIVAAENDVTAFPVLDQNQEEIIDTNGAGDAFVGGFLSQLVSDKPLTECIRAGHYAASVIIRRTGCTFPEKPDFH
Protocol: AML12 cells were treated with an adenosine kinase inhibitor (5-IT; […]) for 1 hour prior to NRH treatment at the doses indicated. Then, 1 hour later, acidic extracts were obtained to measure NAD^+ levels. All values in the figure are expressed as mean +/−SEM of 3 independent experiments. * indicates statistical difference at p<0.05 vs. the respective vehicle treated group.
Considering the molecular structure of NRH, we reasoned that an alternative nucleoside kinase could be responsible for the phosphorylation of NRH. Confirming this expectation, the adenosine kinase (AK) inhibitor 5-iodotubercidin (5-IT) fully ablated the action of NRH. […] Metabolomic analyses further confirmed that upon inhibition of AK, the generation of NMNH, NADH and NAD+ was fully blunted, even if NRH was effectively entering the cell.

AML12 hepatocytes = assay: Intracellular NAD+ levels in AML12 hepatocytes after NRH or NR treatment (dose-response, time course); assay type: cell-based
Description: as §2
Even at such relatively low dose, NRH achieved similar increases in intracellular NAD+ levels to those reached with NR at 50-fold higher concentrations.
NRH actions were also extremely fast (FIG. 3), as significant increases in NAD+ levels were observed within 5 minutes after NRH treatment.

[4] = Stability of NRH or NR spiked in isolated mouse plasma; assay type: in vitro ADME
Description: as §2
(§4) NR degradation to NAM has been proposed as a limitation for its pharmacological efficacy. To evaluate whether NRH was also susceptible to degradation to NAM, we spiked NRH or NR in isolated mouse plasma. […] We also tested the stability of NRH in other matrixes.

[5] = Stability in FBS supplemented media; assay type: in vitro ADME
Description: as §4

C2C12 myotubes = assay: NAD+ levels in C2C12 myotubes after NRH treatment; assay type: cell-based
Protocol: as §1

NAMPT = NAMPT (Mus musculus, UniProt Q99KQ4); assay: NRH action in presence of NAMPT inhibitor FK866; assay type: cell-based; settings: FK866, a NAMPT inhibitor
NAMPT, sequence (Q99KQ4 whole entry): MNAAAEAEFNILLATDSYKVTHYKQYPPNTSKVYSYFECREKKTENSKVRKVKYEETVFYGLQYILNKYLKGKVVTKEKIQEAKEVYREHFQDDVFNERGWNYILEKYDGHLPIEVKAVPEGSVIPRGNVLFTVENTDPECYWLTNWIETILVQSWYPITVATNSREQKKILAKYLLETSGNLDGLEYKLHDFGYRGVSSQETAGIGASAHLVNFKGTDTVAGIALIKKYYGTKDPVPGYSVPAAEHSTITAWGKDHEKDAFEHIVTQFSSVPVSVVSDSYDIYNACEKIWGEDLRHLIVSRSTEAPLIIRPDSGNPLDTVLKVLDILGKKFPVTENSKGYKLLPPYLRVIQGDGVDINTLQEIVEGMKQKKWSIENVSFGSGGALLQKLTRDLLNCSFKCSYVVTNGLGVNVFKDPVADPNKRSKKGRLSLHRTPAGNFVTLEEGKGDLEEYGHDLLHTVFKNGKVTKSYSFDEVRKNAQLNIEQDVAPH

[6] = tested on: NRH-induced NAD+ Synthesis; assay: Intracellular NAD-related metabolites after NRH or NR treatment; assay type: cell-based
Description: as §2, with “standards. […]” for “standards.”

INS1-cells = assay: NAD+ levels in INS1-cells after NRH treatment; assay type: cell-based
Protocol: as §1

[7] = Circulating NAM, NRH and NR after intraperitoneal injection; assay type: in vivo, mice; settings: mouse, in vivo, ip
Description: as §2
The above results prompted us to test whether NRH could act as an effective NAD+ precursor in vivo. For this, we first intraperitoneally (IP) injected mice with either NR or NRH (500 mg/kg).

Structure (SMILES): NC(=O)C1=CN([C@@H]2O[C@H](CO)[C@@H](O)[C@H]2O)C=CC1 [NRH, dihydro-1-beta-D-ribofuranosyl-3-pyridinecarboxamide]
- NAD+ levels (3T3 fibroblasts): highly elevated NAD+ levels
- NRH concentration in plasma [1]: 11.16 ± 1.74 µM
- administered compound in plasma [1]: detectable in plasma
- capacity as extracellular NAD+ precursor under ENT blockage [2]: largely lost its capacity as an extracellular NAD+ precursor; also recorded: a substantial action of NRH remained
- NAD+ synthesis after NRH treatment in presence of gallotannin (NMNAT; NRH at maximal doses (0.5 mM)): largely compromised NAD+ synthesis; also recorded: part of the NRH action remained
- NRH action in presence of gallotannin (NMNAT; NRH at submaximal doses): totally blocked by gallotannin
- effect on hepatic NAD+ levels ([3]; oral administration, compared with NR): more potent effect on hepatic NAD+ levels than NR
- NAD+ precursor activity in liver, muscle and kidney ([3]; oral gavage 500 mg/kg, after 1 hour (FIG. 5)): orally active NAD+ precursor in liver, muscle and kidney
- formation of NR and NMN after NRH treatment with 5-IT (adenosine kinase (AK); 5-IT treatment): prevented the formation of NR and NMN
- action of NRH on NAD+ in presence of AK inhibitor 5-iodotubercidin (5-IT) (adenosine kinase (AK); AML12 cells, 5-IT 10 mM for 1 hour prior to NRH, NAD+ 1 hour later): fully ablated; also recorded: adenosine kinase dependent path
- generation of NMNH, NADH and NAD+ upon inhibition of AK (adenosine kinase (AK); metabolomic analyses): fully blunted
- NRH-mediated NAD+ synthesis in presence of AK inhibitor ABT-702 (adenosine kinase (AK); second, structurally different AK inhibitor): role of AK in NRH-mediated NAD+ synthesis was confirmed
- ability to increase intracellular NAD+ compared with NR (AML12 hepatocytes; AML12 hepatocytes): superior to that of NR
- time to significant increases in NAD+ levels after treatment (AML12 hepatocytes; AML12 hepatocytes): ≤ 5 min
- increase in intracellular NAD+ levels at maximal effect (AML12 hepatocytes; NRH around the millimolar range): more than 10 fold
- fold higher NR concentration needed for similar increases in intracellular NAD+ levels (AML12 hepatocytes; NRH at 10 μM vs NR): 50 fold
- concentration of maximal effects on NAD+ synthesis (AML12 hepatocytes; dose-response): around the millimolar range
- concentration at which NAD+ levels are significantly increased (AML12 hepatocytes; dose-response, AML12 hepatocytes): 10 µM
- NR production on incubation in isolated plasma [4]: did not lead to NR production
- degradation to NAM in FBS supplemented media [5]: did not degrade to NAM
- NAD+ levels (C2C12 myotubes): highly elevated NAD+ levels
- dependence of NRH action on NAMPT (NAMPT): NAMPT-independent
- intracellular detection of NRH and NMNH ([6]; 5 minutes after treatment): could be detected intracellularly
- intracellular NR and NMN ([6]; after treatment, compared with NR): increase in intracellular NR and NMN, greater than that triggered by NR itself
- NAD+ levels (INS1-cells): highly elevated NAD+ levels
- NR in circulation after NRH treatment [7]: detectable in circulation after NRH treatment at much higher levels than those detected after NR injection itself
- NRH in circulation [7]: detectable in circulation
- NAM levels in circulation ([7]; 500 mg/kg): only a very mild increase

From US20220296623A1, “REDUCED NICOTINAMIDERIBOSIDES FOR TREATING OR PREVENTING KIDNEY DISEASE” (SOCIETE DES PRODUITS NESTLE S.A., priority 2019, published 2022)
